Tests used:
Format in all cases: cell-based
[1] = tested on: Human primary gingival fibroblasts; test: Detergent treatment of lipid-bearing surfaces, gingival fibroblast morphology; conditions: 0.1% detergent in PBS, 1 mL on PGDHC-coated wells, 4° C. overnight
Method: (§1) Tissue culture flasks coated with bacterial lipids were used as a model of lipid-coated biological surfaces. Human primary gingival fibroblasts were maintained in 10 mm dishes in Minimun Essential Medium (GIBCO Cat #10370) 90% with 10% heat-inactivated FCS, penicillin (100 U/ml) and streptomycin ([…]). The cells were plated onto the 6-well tissue culture plate with individual wells treated as indicated below and grown at 37° C. in a humidified atmosphere of 5% CO2 in air.
(§2) Lipid coating: The HPLC-purified P. gingivalis phosphoglycerol dihydroceramide (PGDHC) was dissolved in ethanol and added to the 6-well tissue culture plate (10 μg of lipid/well, 10.5 ng/mm^2). The solvent was allowed to evaporate in a laminar flow hood overnight leaving the lipid deposited on the culture well surface. Sham-coated control wells received only ethanol solvent.
Detergents: 3-[(3-Cholamidopropyl) dimethylammonio]-1-propanesulfonate (CHAPS), Sodium cholate (Cholate), and Tween-20 (Tween) were dissolved at the concentration of 0.1% in phosphate buffered saline (Gibco cat. 1490). 1 mL of freshly prepared […] was added to the wells coated with P. gingivalis phosphoglycerol dihydroceramide. 1 mL of PBS was added to phosphoglycerol dihydroceramide-coated well as a control. The plate was incubated at 4° C. overnight on a rocking platform.
Detergent treatment of uncoated wells had no effect on primary fibroblasts (data not shown).

[2] = tested on: peripheral blood monocytes; test: Morphological changes in peripheral blood monocytes on lipid-coated wells; conditions: treated with 1 μg/mL lipopolysaccharide, 26 hours
Method: Tissue culture flasks coated with bacterial lipids were used as a model of lipid-coated biological surfaces. The HPLC-purified P. gingivalis lipids were dissolved in ethanol and added to the tissue culture plate. The solvent was allowed to evaporate in a laminar flow hood overnight leaving the lipid deposited on the culture well surface. Sham-coated control wells received only ethanol solvent.
Peripheral blood monocytes were plated into 6-well culture dishes previously coated with the indicated lipid fractions (10 μg of lipid/well, 10.5 ng/mm^2) and were incubated for 26 hours. Culture (a) was the sham coating control, (b) was coated with the total lipid extract of P. gingivalis, (c) was coated with the P. gingivalis dihydroceramide fraction, (d) was coated with the phosphoethanolamine lipids and (e) was coated with the phosphoethanolamine dihydroceramide lipid fraction, (f) was treated with 1 μg/mL Salmonella typhimurium lipopolysaccharide.

[3] = tested on: Human primary gingival fibroblasts; test: Collagen coating of lipid-bearing surfaces, gingival fibroblast morphology
Method: as §1, with “24-well” for “6-well”
as §2, with “dihydroceramide” for “dihydroceramide (PGDHC)”, “24-well” for “6-well”, “(2” for “(10”
Collagen coating: 0.5 mL of 50 μg/mL collagen dissolved in 0.02N Acetic acid was added to the 24-well tissue culture plate, and incubated at 4° C. overnight on a rocking platform. The collagen solution was aspirated, and the wells were washed with PBS.
The treatments were done in triplicate.

| Compound | negation of the biological effect of surface-deposited PGDHC [1] | further results |
| --- | --- | --- |
| C[C@H](CCC(=O)NCCC[N+](C)(C)CCCS(=O)(=O)[O-])[C@H]1CC[C@H]2[C@@H]3[C@H](O)C[C@@H]4C[C@H](O)CC[C@]4(C)[C@H]3C[C@H](O)[C@]12C [CHAPS, 3-[(3-Cholamidopropyl)dimethylammonio]-1-propanesulfonate] | negated the biological effect of bacterial lipid |  |
| lipopolysaccharide |  | cell clustering of monocytes [2]: did not produce similar cell clustering |
| C[C@H](CCC(=O)[O-])[C@H]1CC[C@H]2[C@@H]3[C@H](O)C[C@@H]4C[C@H](O)CC[C@]4(C)[C@H]3C[C@H](O)[C@]12C.[Na+] [sodium cholate, Sodium cholate] | negated the biological effect of bacterial lipid |  |
| collagen |  | effect of coating alone on primary fibroblasts ([3]; 0.5 mL of 50 μg/mL collagen, wells without lipid): did not have any effect; blocking of the biological effect of surface-deposited phosphoglycerol dihydroceramide ([3]; collagen coated on top of PGDHC (2 μg of lipid/well, 10.5 ng/mm^2)): blocked the biological effect |
| polyoxyethylene(20) sorbitan monolaurate [Tween-20] | negated the biological effect of bacterial lipid |  |

— patent US20090186079A1, “Oral and overall health by negating the biological effects of bacterial lipids” (priority 2008, published 2009)
